Laboratory results as given in ChEMBL document CHEMBL5380842, “Discovery of a Potent and Selective CCR8 Small Molecular Antagonist IPG7236 for the Treatment of Cancer” (J Med Chem, 2023).
In brackets after ≈: the same amount, converted by molar mass.

Key:
[1] = Oral bioavailability in ICR mouse at 50 mg/kg; type: ADME, organism-based; details: in vivo
Cytochrome P450 2B6 = target: T1, Cytochrome P450 2B6 (Homo sapiens, UniProt P20813); test: Inhibition of CYP2B6 (unknown origin); type: ADME
T1 sequence (P20813 whole entry): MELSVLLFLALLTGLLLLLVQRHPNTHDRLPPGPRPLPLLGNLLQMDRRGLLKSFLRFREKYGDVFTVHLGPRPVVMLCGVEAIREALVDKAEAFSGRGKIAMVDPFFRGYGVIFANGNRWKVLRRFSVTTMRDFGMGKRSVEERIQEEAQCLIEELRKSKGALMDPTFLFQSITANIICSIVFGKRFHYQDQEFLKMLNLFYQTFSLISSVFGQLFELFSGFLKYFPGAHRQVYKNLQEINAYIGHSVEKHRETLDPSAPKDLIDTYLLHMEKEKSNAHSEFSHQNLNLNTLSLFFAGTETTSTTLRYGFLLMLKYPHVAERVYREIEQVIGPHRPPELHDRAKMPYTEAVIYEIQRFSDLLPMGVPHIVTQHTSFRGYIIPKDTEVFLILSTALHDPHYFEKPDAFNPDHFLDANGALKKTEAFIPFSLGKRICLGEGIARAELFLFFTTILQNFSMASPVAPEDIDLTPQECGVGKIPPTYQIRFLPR

MDA-MB-231 [2] = test: Antitumor activity against human MDA-MB-231 cells xenografted in humanized NCG mouse assessed as tumor growth inhibition at 10 mg/kg, IG bid measured after 22 days relative to control; type: functional; details: MDA-MB-231, po, 528 h, time 22 day, read-out: TGI
[3] = Volume of distribution at steady state in Sprague-Dawley rat at 1 mg/kg, iv; type: ADME, organism-based; details: in vivo, read-out: Vdss
[4] = Apparent permeability of compound across basal to apical side in human Caco2 cells at 10 uM incubated for 120 mins by LC-MS/MS analysis; details: Caco-2
MDA-MB-231 [5] = test: Antitumor activity against human MDA-MB-231 cells xenografted in humanized NCG mouse assessed as […] in tumor-infiltrating CD8+ T cells administered intragastrically twice everyday; type: functional, cell-based; details: dose 2-50 mg/kg, route ig
MDA-MB-231 [6] = test: Synergistic antitumor activity against human MDA-MB-231 cells xenografted in humanized NCG mouse assessed as tumor growth inhibition at 10 mg/kg, po bid in presence of PD-1 antibody relative to control; type: functional; details: read-out: TGI
MDA-MB-231 [7] = test: Antitumor activity against human MDA-MB-231 cells xenografted in humanized NCG mouse assessed as decrease in tumor-infiltrating Treg cells administered intragastrically twice everyday; type: functional, cell-based; details: dose 2-50 mg/kg, route ig
[8] = Unbound fraction in human plasma; type: ADME, cell-free
[9] = AUClast in Cynomolgous monkey at 50 mg/kg, po; type: ADME, organism-based, Macaca fascicularis; design: dose 50 mg/kg, route po; details: cynomolgus monkey, in vivo
[10] = AUClast in ICR mouse at 1 mg/kg, iv; type: ADME, organism-based; design: dose 1 mg/kg, route iv; details: in vivo
Cytochrome P450 1A2 = target: T2, Cytochrome P450 1A2 (Homo sapiens, UniProt P05177); test: Inhibition of CYP1A2 (unknown origin); type: ADME
T2 sequence (P05177 whole entry): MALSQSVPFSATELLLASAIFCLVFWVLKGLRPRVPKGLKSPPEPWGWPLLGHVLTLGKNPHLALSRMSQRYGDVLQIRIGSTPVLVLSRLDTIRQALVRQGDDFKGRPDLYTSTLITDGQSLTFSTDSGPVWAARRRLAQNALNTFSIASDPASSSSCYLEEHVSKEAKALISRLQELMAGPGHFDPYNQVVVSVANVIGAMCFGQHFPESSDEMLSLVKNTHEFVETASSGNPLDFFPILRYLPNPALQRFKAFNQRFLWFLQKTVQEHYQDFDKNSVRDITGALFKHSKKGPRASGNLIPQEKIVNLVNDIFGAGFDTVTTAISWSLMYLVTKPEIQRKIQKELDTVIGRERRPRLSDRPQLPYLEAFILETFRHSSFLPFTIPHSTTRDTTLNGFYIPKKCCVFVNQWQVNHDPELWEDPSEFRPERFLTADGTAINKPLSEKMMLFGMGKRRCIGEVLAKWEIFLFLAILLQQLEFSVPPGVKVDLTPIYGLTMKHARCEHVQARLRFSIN

[11] = AUClast in ICR mouse at 50 mg/kg, po; type: ADME, organism-based; design: dose 50 mg/kg, route po; details: in vivo
[12] = AUClast in Sprague-Dawley rat at 50 mg/kg, po; type: ADME, organism-based; design: dose 50 mg/kg, route po; details: in vivo
[13] = Oral bioavailability in Sprague-Dawley rat at 50 mg/kg; type: ADME, organism-based; details: in vivo
[14] = Clearance in Beagle dog at 3 mg/kg, iv; type: ADME, organism-based, Canis lupus familiaris; details: in vivo
MDA-MB-231 [15] = test: Antitumor activity against human MDA-MB-231 cells xenografted in humanized NCG mouse assessed as tumor growth inhibition at 10 mg/kg, po bid relative to control; type: functional; details: read-out: TGI
[16] = Oral bioavailability in Cynomolgous monkey at 50 mg/kg; type: ADME, organism-based, Macaca fascicularis; details: cynomolgus monkey, in vivo
[17] = Cytotoxicity against human primary hepatocytes; type: toxicity, cell-based, Hepatocyte
Cytochrome P450 2D6 = Cytochrome P450 2D6 (Homo sapiens, UniProt P10635); test: Inhibition of CYP2D6 (unknown origin); type: ADME
MDA-MB-231 [18] = test: Antitumor activity against human MDA-MB-231 cells xenografted in humanized NCG mouse assessed as tumor growth inhibition at 50 mg/kg, IG bid measured after 22 days relative to control; type: functional; details: MDA-MB-231, po, 528 h, time 22 day, read-out: TGI
[19] = Apparent permeability of compound across apical to basal side in human Caco2 cells at 10 uM incubated for 120 mins by LC-MS/MS analysis; details: Caco-2
[20] = Toxicity in humanized NCG mouse xenografted with human MDA-MB-231 cells administered intragastrically twice everyday; details: in vivo, po
[21] = Oral bioavailability in Beagle dog at 10 mg/kg; type: ADME, organism-based, Canis lupus familiaris; details: in vivo
[22] = Tmax in Sprague-Dawley rat at 50 mg/kg, po; type: ADME, organism-based; details: in vivo
Cytochrome P450 2C19 = Cytochrome P450 2C19 (Homo sapiens, UniProt P33261); test: Inhibition of CYP2C19 (unknown origin); type: ADME
Cytochrome P450 3A4 [23] = target: T3, Cytochrome P450 3A4 (Homo sapiens, UniProt P08684); test: Inhibition of CYP3A4-T (unknown origin); type: ADME
[24] = Clearance in Sprague-Dawley rat at 1 mg/kg, iv; type: ADME, organism-based; details: in vivo
[25] = AUClast in Beagle dog at 3 mg/kg, iv; type: ADME, organism-based, Canis lupus familiaris; design: dose 3 mg/kg, route iv; details: in vivo
[26] = Stability in mouse liver microsomes assessed as half life; type: ADME, Microsome
Cytochrome P450 3A4 [27] = target: T3, Cytochrome P450 3A4; test: Inhibition of CYP3A4-M (unknown origin); type: ADME
[28] = Solubility of compound in PBS at pH 7.4 incubated for 2 hrs by LC-MS/MS analysis; type: physicochemical
[29] = Clearance in ICR mouse at 1 mg/kg, iv; type: ADME, organism-based; details: in vivo
[30] = AUClast in Sprague-Dawley rat at 1 mg/kg, iv; type: ADME, organism-based; design: dose 1 mg/kg, route iv; details: in vivo

T3 sequence (P08684 whole entry): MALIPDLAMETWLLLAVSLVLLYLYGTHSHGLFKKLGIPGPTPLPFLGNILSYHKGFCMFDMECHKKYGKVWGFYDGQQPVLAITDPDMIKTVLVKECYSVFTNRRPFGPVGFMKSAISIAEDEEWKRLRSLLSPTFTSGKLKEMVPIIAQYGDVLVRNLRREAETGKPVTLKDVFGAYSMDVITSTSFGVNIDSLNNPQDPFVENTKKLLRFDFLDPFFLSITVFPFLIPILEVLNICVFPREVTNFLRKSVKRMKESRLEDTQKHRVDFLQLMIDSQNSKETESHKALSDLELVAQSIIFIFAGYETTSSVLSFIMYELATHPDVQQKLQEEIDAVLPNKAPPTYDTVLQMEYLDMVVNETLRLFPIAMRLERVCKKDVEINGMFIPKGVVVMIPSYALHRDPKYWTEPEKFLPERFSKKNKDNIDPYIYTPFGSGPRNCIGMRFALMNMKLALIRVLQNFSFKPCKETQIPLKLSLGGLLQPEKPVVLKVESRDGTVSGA
Chain of Cytochrome P450 2D6 (P10635 whole entry): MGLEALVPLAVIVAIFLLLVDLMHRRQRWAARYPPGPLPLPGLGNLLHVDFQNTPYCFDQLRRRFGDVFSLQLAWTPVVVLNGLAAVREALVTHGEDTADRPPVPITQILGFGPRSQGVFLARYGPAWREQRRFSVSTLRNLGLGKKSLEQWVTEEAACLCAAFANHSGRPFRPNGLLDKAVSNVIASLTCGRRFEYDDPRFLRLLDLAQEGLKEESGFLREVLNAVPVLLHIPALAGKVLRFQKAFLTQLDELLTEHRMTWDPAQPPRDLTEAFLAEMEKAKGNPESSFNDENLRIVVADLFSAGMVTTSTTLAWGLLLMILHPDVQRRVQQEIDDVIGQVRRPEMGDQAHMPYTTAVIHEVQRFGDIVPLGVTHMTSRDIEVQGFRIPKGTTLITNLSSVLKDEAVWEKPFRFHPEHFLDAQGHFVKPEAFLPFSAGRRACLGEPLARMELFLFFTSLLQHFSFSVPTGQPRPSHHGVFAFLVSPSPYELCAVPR
Chain of Cytochrome P450 2C19 (P33261 whole entry): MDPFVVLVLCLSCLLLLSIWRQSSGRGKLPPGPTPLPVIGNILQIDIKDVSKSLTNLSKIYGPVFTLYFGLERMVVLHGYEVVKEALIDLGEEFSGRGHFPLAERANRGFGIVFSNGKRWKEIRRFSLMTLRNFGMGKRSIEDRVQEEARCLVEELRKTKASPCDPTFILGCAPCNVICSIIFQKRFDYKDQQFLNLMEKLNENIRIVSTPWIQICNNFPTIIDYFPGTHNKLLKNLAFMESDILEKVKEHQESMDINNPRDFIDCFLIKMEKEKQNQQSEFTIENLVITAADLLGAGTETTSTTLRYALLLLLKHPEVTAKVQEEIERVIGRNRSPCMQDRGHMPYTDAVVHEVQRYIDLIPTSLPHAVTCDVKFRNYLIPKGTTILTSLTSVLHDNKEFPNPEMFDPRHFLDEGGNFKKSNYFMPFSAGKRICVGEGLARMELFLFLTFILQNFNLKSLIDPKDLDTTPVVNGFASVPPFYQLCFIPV

Compound: Cc1cc(S(=O)(=O)N[C@H](C)C2CCN(C)CC2)ccc1NC(=O)c1ccccc1C
- bioavailability [1]: 65%
- IC50 (Cytochrome P450 2B6): > 10 µM
- inhibition in vivo at 10 mg/kg (MDA-MB-231 [2]): 28.3%
- Vd [3]: 4.4 L/kg
- Papp B→A at 2 h, 10 µM [4]: 17.2 ×10⁻⁶ cm/s
- Activity (MDA-MB-231 [5]): Dose-Dependent Effect
- inhibition in vivo at 10 mg/kg (MDA-MB-231 [6]): 73.8%
- Activity (MDA-MB-231 [7]): Dose-Dependent Effect
- fraction unbound [8]: 0.358
- AUC(0-t) [9]: 28900 ng·h/mL
- AUC(0-t) [10]: 666 ng·h/mL
- IC50 (Cytochrome P450 1A2): > 10 µM
- AUC(0-t) [11]: 22100 ng·h/mL
- AUC(0-t) [12]: 13600 ng·h/mL
- bioavailability [13]: 66%
- clearance [14]: 14.2 mL/min/kg
- inhibition in vivo at 10 mg/kg (MDA-MB-231 [15]): 47.2%
- bioavailability [16]: 105%
- IC50 [17]: > 150 µM
- IC50 (Cytochrome P450 2D6): > 10 µM
- inhibition in vivo at 50 mg/kg (MDA-MB-231 [18]): 55.6%
- Papp A→B at 2 h, 10 µM [19]: 3.7 ×10⁻⁶ cm/s
- MED [20]: 10 mg/kg
- bioavailability [21]: 55%
- Tmax [22]: 3.3 h
- IC50 (Cytochrome P450 2C19): > 10 µM
- IC50 (Cytochrome P450 3A4 [23]): > 10 µM
- clearance [24]: 40.9 mL/min/kg
- AUC(0-t) [25]: 3550 ng·h/mL
- half-life [26]: 0.433 h
- IC50 (Cytochrome P450 3A4 [27]): > 10 µM
- solubility at 2 h [28]: 254 µM (≈ 109 µg/mL)
- clearance [29]: 24.5 mL/min/kg
- AUC(0-t) [30]: 395 ng·h/mL
